For one series, the system named is HIV-1 strain IIIB. Kind of series: MTT assay, HIV-1 strain IIIB in MT-4 cells. The following applies: Human immunodeficiency virus 1, MT4; HIV-1IIIB in MT-4 cells; read-out: EC50 HIV-1IIIB (inhibition of cytopathicity). Format: cell-based.
Series [1] can be described thus: Cytotoxicity in mock-infected MT-4 cells. The following applies: human, uninfected (mock-infected) MT-4 cells. Format: cell-based.
The nature of series [2]: In vitro hydrolytic stability study in rat plasma. It is filed as in vitro ADME. The following applies: for Rat Plasma tp1/2 (min ± SD): rat plasma in vitro, half-life; for hydrolysis in rat plasma: 37° C. The protocol: NMR spectra were obtained at 300 MHz (^1H) and 75 MHz (^13C) in CDCl3 using CHCl3 as internal standard. Flash chromatography was performed with 230-400 mesh silica gel. […] Melting points are uncorrected. Unless otherwise stated, chemicals and solvents were of reagent grade and used as obtained from commercial sources without further purification. Tetrahydrofuran (THF) was freshly distilled from sodium/benzophenone ketyl radical prior to use. Dichloromethane was freshly distilled from calcium hydride prior to use. Lyophilized rat plasma (lot 052K7609) was obtained from Sigma Chemical Co., St. Louis, Mo. All yields given refer to isolated yields.
In vitro Hydrolytic Stability Study in Rat Plasma. […] See, Silvestri, M. A.; Nagarajan, M.; De Clercq, E.; Pannecouque, C.; Cushman, M. Design, Synthesis, Anti-HIV Activities, and Metabolic Stabilities of Alkenyldiarylmethane (ADAM) Non-nucleoside Reverse Transcriptase Inhibitors. J. Med. Chem. 2004, 47, 3149-3162, the disclosure of which is incorporated herein by reference.

The nature of series [3]: Cytotoxicity in mock-infected CEM-SS cells. The following applies: human, uninfected (mock-infected) CEM-SS cells. It is filed as cell-based. The protocol:
In Vitro Antiviral Assays. Evaluation of the antiviral activity of compounds against HIV-1RF infection in CEM-SS cells was performed using the MTS cytoprotection assay as previously described. See, Rice, W. G.; Bader, J. P. Discovery and in Vitro Development of AIDS Antiviral Drugs as Biopharmaceuticals. Adv. Pharmacol. (San Diego) 1995, 6, 389-438, the disclosure of which is incorporated herein by reference. […] See, Pauwels, R.; Balzarini, J.; Baba, M.; Snoeck, R.; Schols, […].; De […]. Rapid and Automated Tetrazolium-based Colorimetric Assay for Detection of Anti-HIV Compounds. J. Virol. Methods 1988, 20, 309-321, the disclosure of which is incorporated herein by reference.

The next series deals with HIV-1RF. As to the kind of experiment: MTS cytoprotection assay, HIV-1RF infection in CEM-SS cells. Format: cell-based. The following applies: Human immunodeficiency virus 1; HIV-1RF in CEM-SS cells; read-out: EC50 HIV-1RF (inhibition of cytopathicity). On the procedure: In Vitro Antiviral Assays. Evaluation of the antiviral activity of compounds against HIV-1RF infection in CEM-SS cells was performed using the MTS cytoprotection assay as previously described. See, Rice, W. G.; Bader, J. P. Discovery and in Vitro Development of AIDS Antiviral Drugs as Biopharmaceuticals. Adv. Pharmacol. (San Diego) 1995, 6, 389-438, the disclosure of which is incorporated herein by reference. […] See, Pauwels, R.; Balzarini, J.; Baba, M.; Snoeck, R.; Schols, D.; Herdewijn, P.; Desmyter, J.; De Clercq, E. Rapid and Automated Tetrazolium-based Colorimetric Assay for Detection of Anti-HIV Compounds. J. Virol. Methods 1988, 20, 309-321, the disclosure of which is incorporated herein by reference.
Background: Tetrazolium dyes change colour on reduction, which living cells bring about.

Series [4] has as its target T1, recombinant HIV-1 RT enzyme (p66/51 dimer) (Human immunodeficiency virus type 1 group M subtype B, UniProt P04585).
T1 construct: recombinant HIV-1 RT enzyme (p66/51 dimer)
As to the kind of experiment: RT inhibition assay, incorporation of [32P]GTP into poly(rC)/oligo(dG). It is filed as biochemical. The protocol:
RT Inhibition Assay. Analysis of the effects of the compounds on recombinant HIV-1 RT enzyme (p66/51 dimer) was performed as previously described. See, Buckheit, R. W. J.; Fliakas-Boltz, V.; Decker, W. D.; Robertson, J. L.; Stup, T. L.; Pyle, C. […] Antiviral Res. 1995, 26, 117-132, the disclosure of which is incorporated herein by reference. Briefly, inhibition of purified recombinant reverse transcriptase enzyme was measured by the incorporation of [^32P]GTP into poly(rC)/oligo(dG) (rCdG) homopolymer template primers.

A further series relates to HIV-2 strain (ROD). As to the kind of experiment: MTT assay, HIV-2 strain (ROD) in MT-4 cells. The following applies: Human immunodeficiency virus 2, MT4; HIV-2ROD in MT-4 cells; read-out: EC50 HIV-2-ROD (inhibition of cytopathicity). It is filed as cell-based.

With `COC(=O)c1cc(/C(=C\CCN2CCOC2=O)c2ccc(OC)c(OC)c2)cc(C)c1OC` [Compound 3], the EC50 was above 1.05 µM in the series on HIV-1 strain IIIB, above 100 µM with HIV-1RF and above 1.05 µM with HIV-2 strain (ROD). The values for the 50% cytotoxic concentration (CC50) in series [1] and in series [3] were 1.05 µM and 0.49 µM, respectively. Further, the “Rat Plasma tp1/2 (min ± SD)” value in series [2] came out at 5.76 ± 0.68 min. In addition, the 50% inhibitory concentration (IC50) in series [4] worked out at 1 µM.

Turning to `COC(=O)c1cc(/C(=C/CCN2CCOC2=O)c2ccc(OC)c(OC)c2)cc(C)c1OC` [Compound 4, (Z)-5-[1-(3,4-Dimethoxyphenyl)-4-(2-oxo-oxazolidin-3-yl)-but-1-enyl]-2-methoxy-3-methyl-benzoic Acid Methyl Ester], the results for the EC50 in the series on HIV-1 strain IIIB, in the series with HIV-1RF and with HIV-2 strain (ROD) were above 33.8 µM, above 100 µM and above 35.4 µM, respectively. The half-maximal cytotoxic concentration (CC50) came out at 83.1 µM in series [1] and 0.6 µM in series [3]. The “Rat Plasma tp1/2 (min ± SD)” value in series [2] came to 0.79 ± 0.10 min. Further, the IC50 in series [4] came out at 0.9 µM.

Turning to `COC(=O)c1cc(/C(=C\CCN2CCOC2=O)c2cc(F)cc(C(F)(F)F)c2)cc(C)c1OC` [Compound 7, (E)-5-[1-(3-Fluoro-5-trifluoromethylphenyl)-4-(2-oxo-oxazolidin-3-yl)-but-1-enyl]-2-methoxy-3-methylbenzoic Acid Methyl Ester], the midpoint of cytotoxicity in series [3], the CC50, lay at 15 µM. Also, in the series with HIV-1RF, the EC50 amounted to 8.3 µM. Also, the IC50 in series [4] is 15.7 µM.

Take `COc1ccc(/C(=C\CCN2CCOC2=O)c2cc(F)cc(C(F)(F)F)c2)cc1OC` [Compound 8, (E)-3-[4-(3-Fluoro-5-trifluoromethylphenyl)-4-(3,4-dimethoxyphenyl)-but-3-enyl]-oxazolidin-2-one]: the “hydrolysis in rat plasma” value in series [2] (after three days) is reported as “had not been hydrolyzed”. The same compound gave a CC50 in series [3] of 14.5 µM. Moreover, the EC50 with HIV-1RF was above 100 µM. Besides, the half-maximal inhibitory concentration (IC50) in series [4] was found to be 97.8 µM.

Consider `COc1ccc(/C(=C\CCN2CCOC2=O)c2cc(F)ccc2C(F)(F)F)cc1OC` [Compound 9, (E)-3-[4-(5-Fluoro-2-trifluoromethylphenyl)-4-(3,4-dimethoxyphenyl)-but-3-enyl]-oxazolidin-2-one], for which the “hydrolysis in rat plasma” value in series [2] (after three days) is recorded as “had not been hydrolyzed”. This compound registered a CC50 in series [3] of 26.7 µM. Moreover, the EC50 in the series on HIV-1RF was above 100 µM. The IC50 in series [4] was above 100 µM.

For the compound `COC(=O)CCC/C=C(/c1cc(Cl)c(OC)c(C(=O)OC)c1)c1cc(Cl)ccc1OC` [Compound 10, (Z)-3-Chloro-5-[1-(5-chloro-2-methoxyphenyl)-5-methoxycarbonyl-pent-1-enyl]-2-methoxybenzoic Acid Methyl Ester], the “Rat Plasma tp1/2 (min ± SD)” value in series [2] was found to be 0.77 ± 0.08 min. Besides, the midpoint of cytotoxicity in series [3], the CC50, lay at 15.5 µM. In the series with HIV-1RF, the EC50 was above 100 µM. The IC50 in series [4] is above 100 µM.

On to `COC(=O)CCC/C=C(/c1cc(C)c(OC)c(C(=O)OC)c1)c1cc(Cl)ccc1OC` [Compound 11, (Z)-5-[1-(5-Chloro-2-methoxyphenyl)-5-methoxycarbonyl-pent-1-enyl]-2-methoxy-3-methylbenzoic Acid Methyl Ester], for which the “Rat Plasma tp1/2 (min ± SD)” value in series [2] came out at 0.98 ± 0.02 min. In series [3], this compound came in with a 50% cytotoxic concentration (CC50) of 8 µM. The EC50 in the series on HIV-1RF is above 100 µM. Further, the IC50 in series [4] is above 100 µM.

For `COC(=O)CCC/C=C(\c1cc(F)cc(C(F)(F)F)c1)c1cc(C)c(OC)c(C(=O)OC)c1` [Compound 12, (Z)-5-[1-(3-Fluoro-5-trifluoromethylphenyl)-5-methoxycarbonyl-pent-1-enyl]-2-methoxy-3-methylbenzoic Acid Methyl Ester], the EC50 is above 5.51 µM in the series on HIV-1 strain IIIB, above 5 µM in the series with HIV-1RF and above 5.89 µM in the series with HIV-2 strain (ROD). Further, the CC50 in series [1] was 5.7 µM; in series [3], above 5 µM. For the same compound, the IC50 in series [4] is above 100 µM.

In series [3], `COC(=O)CCC/C=C(\c1cc(F)cc(C(F)(F)F)c1)c1cc(Cl)c(OC)c(C(=O)OC)c1` [Compound 13, (E)-3-Chloro-5-[1-(3-fluoro-5-trifluoromethylphenyl)-5-methoxycarbonyl-pent-1-enyl]-2-methoxy-benzoic Acid Methyl Ester] had a CC50 of 16.1 µM. For the same compound, the EC50 in the series with HIV-1RF was above 100 µM. Also, in series [4], the IC50 was above 100 µM.

Consider `COC(=O)CCC/C=C(\c1cc(C)c(OC)c(C(=O)OC)c1)c1cc(Cl)ccc1OC` [Compound 14, (E)-5-[1-(5-Chloro-2-methoxyphenyl)-5-methoxycarbonyl-pent-1-enyl]-2-methoxy-3-methylbenzoic Acid Methyl Ester], for which the “Rat Plasma tp1/2 (min ± SD)” value in series [2] is 0.49 ± 0.02 min. In series [3], the CC50 is 8.3 µM. In the series on HIV-1RF, the EC50 is above 100 µM. Moreover, the IC50 in series [4] is above 100 µM.

As for `COC(=O)CCC/C=C(/c1cc(F)cc(C(F)(F)F)c1)c1cc(C)c(OC)c(C(=O)OC)c1` [Compound 15, (E)-5-[1-(3-Fluoro-5-trifluoromethylphenyl)-5-methoxycarbonyl-pent-1-enyl]-2-methoxy-3-methylbenzoic Acid Methyl Ester], the values for the concentration for a half-maximal effect (EC50) in the series on HIV-1 strain IIIB, in the series with HIV-1RF and with HIV-2 strain (ROD) were 2.54 µM, 7.3 µM and 10.6 µM, respectively. The values for the CC50 in series [1] and in series [3] were 113 µM and 9.3 µM, respectively. Moreover, the “Rat Plasma tp1/2 (min ± SD)” value in series [2] is listed as 4.35 ± 0.41 min. Besides, in series [4], the IC50 amounted to 55.3 µM.

With `COC(=O)CCC/C=C(\c1cc(F)cc(C(F)(F)F)c1)c1cc(C)c2onc(OC)c2c1` [Compound 19, (Z)-6-(3-Fluoro-5-trifluoromethylphenyl)-6-(3-methoxy-7-methylbenzo[d]isoxazol-5-yl)-hex-5-enoic Acid Methyl Ester], the IC50 in series [4] was 0.9 µM.

For `COC(=O)CCC/C=C(/c1cc(C)c2on(C)c(=O)c2c1)c1cc(Cl)ccc1OC` [Compound 21, (Z)-6-(5-Chloro-2-methoxyphenyl)-6-(2,3-dihydro-2,7-dimethyl-3-oxo-benzo[d]isoxazol-5-yl)-hex-5-enoic Acid Methyl Ester], in series [2], the “Rat Plasma tp1/2 (min ± SD)” value is reported as 0.48 ± 0.06 min. Moreover, the CC50 in series [3] is 13 µM. In addition, the half-maximal effective concentration (EC50) in the series on HIV-1RF is above 100 µM. For the same compound, the IC50 in series [4] came out at 8.2 µM.

As to `COC(=O)CCC/C=C(\c1cc(F)cc(C(F)(F)F)c1)c1cc(C)c2on(C)c(=O)c2c1` [Compound 22, (Z)-6-(2,3-Dihydro-2,7-dimethyl-3-oxo-benzo[d]isoxazol-5-yl)-6-(3-fluoro-5-trifluoromethylphenyl)-hex-5-enoic Acid Methyl Ester], the EC50 in the series on HIV-1 strain IIIB was above 35.7 µM; in the series with HIV-1RF, above 100 µM; in the series on HIV-2 strain (ROD), above 43.2 µM. The CC50 was 39.8 µM in series [1] and 16.8 µM in series [3]. Further, in series [4], the IC50 was above 100 µM.

`COC(=O)CCC/C=C(/c1cc(C)c2onc(OC)c2c1)c1cc(C)c2oc(=O)n(C)c2c1` [Compound 67, (Z)-6-(3,7-Dimethyl-2-oxo-2,3-dihydro-benzoxazol-5-yl)-6-(3-methoxy-7-methyl-benzo[d]isoxazol-5-yl)-hex-5-enoic Acid Methyl Ester]: the IC50 in series [4] amounted to 0.25 µM.

For the compound `COc1noc2c(C)cc(/C(=C\CCN3CCOC3=O)c3cc(C)c4oc(=O)n(C)c4c3)cc12` [Compound 68, (E)-5-[1-(3-Methoxy-7-methylbenzo[d]isoxazol-5-yl)-4-(2-oxoxazolidin-3-yl)-but-1-enyl]-3,7-dimethyl-3H-benzoxazol-2-one], the “hydrolysis in rat plasma” value in series [2] (after 1 day) was “had not been hydrolyzed”. The IC50 in series [4] was 3.6 µM.

A word on the EC50: it is the concentration needed to bring the measured effect to its halfway point. Usually CC50 stands for the concentration that lowers cell viability or growth by half. Higher therefore signals lower toxicity to the cells. For orientation: IC50 means the concentration that inhibits the measured activity by half.

The values are drawn from US20080300288A1, “Alkenyldiarylmethanes, Fused Analogs And Syntheses Thereof” (PURDUE RESEARCH FOUNDATION, priority 2005, published 2008).
